In PubChem BioAssay AID1259407 (Chemical Carcinogenesis Research Information System (CCRIS), 2018):
Active and inactive are the calls of the source. The rule behind the calls is not given here.

System: CCRIS mutagenicity, Ames/micronucleus/aberration tests
Experiment: CCRIS mutagenicity studies
[1] = Test System: AMES SALMONELLA TYPHIMURIUM, Strain/Indicator: TA98, Metabolic Activation: NONE, Method: STANDARD PLATE
[2] = Test System: AMES SALMONELLA TYPHIMURIUM, Strain/Indicator: TA98, Metabolic Activation: RAT, LIVER, S-9, AROCLOR 1254, Method: STANDARD PLATE
[3] = Test System: AMES SALMONELLA TYPHIMURIUM, Strain/Indicator: TA100, Metabolic Activation: NONE, Method: STANDARD PLATE
[4] = Test System: AMES SALMONELLA TYPHIMURIUM, Strain/Indicator: TA100, Metabolic Activation: RAT, LIVER, S-9, AROCLOR 1254, Method: STANDARD PLATE
[5] = Test System: AMES SALMONELLA TYPHIMURIUM, Strain/Indicator: TA92, Metabolic Activation: NONE, Method: STANDARD PLATE
[6] = Test System: AMES SALMONELLA TYPHIMURIUM, Strain/Indicator: TA98, Metabolic Activation: NONE, Method: PREINCUBATION

In the case of C[C@]12CC[C@H](OC(=O)/C=C/c3cccc(N(CCCl)CCCl)c3)CC1=CC[C@@H]1[C@@H]2CC[C@]2(C)NC(=O)CC[C@@H]12, the mutagenic call [1] is reported as “inactive; negative”, the mutagenic call [2] is reported as “inactive; negative” and the mutagenic call [3] is reported as “inactive; negative”. The mutagenic call [4] was “inactive; negative”, the mutagenic call (Test System: AMES SALMONELLA TYPHIMURIUM, Strain/Indicator: TA1535, Metabolic Activation: NONE, Method: STANDARD PLATE) was “active; positive” and the mutagenic call (Test System: AMES SALMONELLA TYPHIMURIUM, Strain/Indicator: TA1535, Metabolic Activation: RAT, LIVER, S-9, AROCLOR 1254, Method: STANDARD PLATE) was “active; positive”. For the same compound, the mutagenic call (Test System: AMES SALMONELLA TYPHIMURIUM, Strain/Indicator: TA1537, Metabolic Activation: NONE, Method: STANDARD PLATE) was “inactive; negative” and the mutagenic call (Test System: AMES SALMONELLA TYPHIMURIUM, Strain/Indicator: TA1537, Metabolic Activation: RAT, LIVER, S-9, AROCLOR 1254, Method: STANDARD PLATE) was “inactive; negative”.
In the case of O=c1[nH]sc2cc([N+](=O)[O-])ccc12, the mutagenic call [3] is reported as “active; positive”.
For CCN(C(=S)[S-])c1ccccc1.CCN(C(=S)[S-])c1ccccc1.[Zn+2], the mutagenic call [1] was “inactive; negative”, the mutagenic call (Test System: AMES SALMONELLA TYPHIMURIUM, Strain/Indicator: TA98, Metabolic Activation: S-9, Method: STANDARD PLATE) was “inactive; negative” and the mutagenic call [3] was “inactive; negative”. The mutagenic call (Test System: AMES SALMONELLA TYPHIMURIUM, Strain/Indicator: TA100, Metabolic Activation: S-9, Method: STANDARD PLATE) was “inactive; negative”.
With Cc1occc(=O)c1[O-].Cc1occc(=O)c1[O-].Cc1occc(=O)c1[O-].[Cr+3] the mutagenic call [5] was “inactive; negative”, the mutagenic call [1] was “inactive; negative” and the mutagenic call [3] was “inactive; negative”. The mutagenic call (Test System: AMES SALMONELLA TYPHIMURIUM, Strain/Indicator: TA104, Metabolic Activation: NONE, Method: STANDARD PLATE) was “inactive; negative”.
With OCc1ccc2ccc3cccc4ccc1c2c34 the mutagenic call (Test System: AMES SALMONELLA TYPHIMURIUM, Strain/Indicator: TA98, Metabolic Activation: HUMAN, LIVER, CYTOSOL, PAPS, Method: PREINCUBATION) was “active; positive”, the mutagenic call [6] was “inactive; negative” and the mutagenic call (Test System: AMES SALMONELLA TYPHIMURIUM, Strain/Indicator: TA98, Metabolic Activation: RAT, LIVER, CYTOSOL, KCL, Method: PREINCUBATION) was “inactive; negative”. For the same compound, the mutagenic call (Test System: AMES SALMONELLA TYPHIMURIUM, Strain/Indicator: TA98, Metabolic Activation: RAT, LIVER, CYTOSOL, PAPS, KCL, Method: PREINCUBATION) was “active; positive”, the mutagenic call (Test System: AMES SALMONELLA TYPHIMURIUM, Strain/Indicator: TA98, Metabolic Activation: RAT, LIVER, CYTOSOL, PAPS, Method: PREINCUBATION) was “active; positive” and the mutagenic call (Test System: AMES SALMONELLA TYPHIMURIUM, Strain/Indicator: TA98, Metabolic Activation: RAT, LIVER, PAPS, KCL, Method: PREINCUBATION) was “inactive; negative”. The mutagenic call (Test System: AMES SALMONELLA TYPHIMURIUM, Strain/Indicator: TA98, Metabolic Activation: RAT, LIVER, S-9, NADPH, Method: PREINCUBATION) was “active; positive”, the mutagenic call (Test System: UDS CHINESE HAMSTER V-79 CELLS, Metabolic Activation: NONE, Method: AUTORADIOGRAPHY) was “active; positive” and the mutagenic call (Test System: UDS CHINESE HAMSTER V-79 CELLS, Strain/Indicator: V-79-MZ/CYTIDINE INCORPORATION, Metabolic Activation: NONE, Method: AUTORADIOGRAPHY) was “inactive; negative”. The mutagenic call (Test System: UDS CHINESE HAMSTER V-79 CELLS, Strain/Indicator: V-79-RHST20/CYTIDINE INCORPORATION, Metabolic Activation: NONE, Method: AUTORADIOGRAPHY) was “active; positive”, the mutagenic call (Test System: UDS CHINESE HAMSTER V-79 CELLS, Strain/Indicator: V-79-RHSTA/CYTIDINE INCORPORATION, Metabolic Activation: NONE, Method: AUTORADIOGRAPHY) was “active; positive” and the mutagenic call (Test System: UDS CHINESE HAMSTER V-79 CELLS, Strain/Indicator: V-79-RPST-IV/CYTIDINE INCORPORATION, Metabolic Activation: NONE, Method: AUTORADIOGRAPHY) was “active; positive”.
For C=CCNc1ccccc1.C=CCNc1ccccc1.C=CCNc1ccccc1.[Cl-].[Cl-].[Rh].[Rh], the mutagenic call [5] was “inactive; negative”.
With O=NN(CCc1c[nH]c2ccccc12)C1OC[C@@H](O)[C@H](O)[C@H]1O (stereo not given in full) the mutagenic call (Test System: AMES SALMONELLA TYPHIMURIUM, Strain/Indicator: TA100, Metabolic Activation: NONE, Method: LIQUID INCUBATION) was “active; positive”.
For [Li+], the mutagenic call (Test System: AMES SALMONELLA TYPHIMURIUM, Strain/Indicator: TA98, Metabolic Activation: HAMSTER, LIVER, S-9, AROCLOR 1254, Method: PREINCUBATION) was “inactive; negative”, the mutagenic call [6] was “inactive; negative” and the mutagenic call (Test System: AMES SALMONELLA TYPHIMURIUM, Strain/Indicator: TA98, Metabolic Activation: RAT, LIVER, S-9, AROCLOR 1254, Method: PREINCUBATION) was “inactive; negative”. The mutagenic call (Test System: AMES SALMONELLA TYPHIMURIUM, Strain/Indicator: TA100, Metabolic Activation: HAMSTER, LIVER, S-9, AROCLOR 1254, Method: PREINCUBATION) was “inactive; negative”, the mutagenic call (Test System: AMES SALMONELLA TYPHIMURIUM, Strain/Indicator: TA100, Metabolic Activation: NONE, Method: PREINCUBATION) was “inactive; negative” and the mutagenic call (Test System: AMES SALMONELLA TYPHIMURIUM, Strain/Indicator: TA100, Metabolic Activation: RAT, LIVER, S-9, AROCLOR 1254, Method: PREINCUBATION) was “inactive; negative”. The mutagenic call (Test System: AMES SALMONELLA TYPHIMURIUM, Strain/Indicator: TA1535, Metabolic Activation: HAMSTER, LIVER, S-9, AROCLOR 1254, Method: PREINCUBATION) was “inactive; negative”, the mutagenic call (Test System: AMES SALMONELLA TYPHIMURIUM, Strain/Indicator: TA1535, Metabolic Activation: NONE, Method: PREINCUBATION) was “inactive; negative” and the mutagenic call (Test System: AMES SALMONELLA TYPHIMURIUM, Strain/Indicator: TA1535, Metabolic Activation: RAT, LIVER, S-9, AROCLOR 1254, Method: PREINCUBATION) was “inactive; negative”. The mutagenic call (Test System: AMES SALMONELLA TYPHIMURIUM, Strain/Indicator: TA1537, Metabolic Activation: HAMSTER, LIVER, S-9, AROCLOR 1254, Method: PREINCUBATION) was “inactive; negative”, the mutagenic call (Test System: AMES SALMONELLA TYPHIMURIUM, Strain/Indicator: TA1537, Metabolic Activation: NONE, Method: PREINCUBATION) was “inactive; negative” and the mutagenic call (Test System: AMES SALMONELLA TYPHIMURIUM, Strain/Indicator: TA1537, Metabolic Activation: RAT, LIVER, S-9, AROCLOR 1254, Method: PREINCUBATION) was “inactive; negative”. The mutagenic call (Test System: E. COLI, Strain/Indicator: WP2 UVRA, Metabolic Activation: NONE, Method: SPOT TEST) was “inactive; negative”.
C=C(C=O)C[C@@H]1C[C@H](O)[C@@H]2O[C@@H]3C[C@@H]4O[C@@H]5/C=C\C[C@@H]6O[C@H]7[C@H](C/C=C\C[C@H]6O[C@H]5CCC[C@H]4O[C@H]3C[C@H]2O1)O[C@@H]1C[C@@H]2O[C@@H]3CC(=O)O[C@H]3C[C@@H](C)C[C@@]2(C)O[C@H]1C[C@@H]7C was tested, and the mutagenic call (End Point: In vitro chromosomal aberrations, Test System: Chinese hamster ovary (CHO-K1-BH4) cells, Metabolic Activation: None) was “active; positive (structural changes)”.
For O=c1ccc2cc3ccoc3cc2o1, the mutagenic call [1] was “inactive; negative”, the mutagenic call [2] was “inactive; negative” and the mutagenic call (Test System: AMES SALMONELLA TYPHIMURIUM, Strain/Indicator: TA98, Metabolic Activation: RAT, LIVER, S-9, PHENOBARBITAL, Method: STANDARD PLATE) was “inactive; negative”. For the same compound, the mutagenic call [3] was “inactive; negative” and the mutagenic call [4] was “inactive; negative”.
